Experimental data published in US20030212051A1, “Bile acid containing prodrugs with enhanced bioavailabilty” (priority 2003, published 2003).
Structures can show the parent of a compound that is named as a salt. Where two headings read alike, the source gives them in different places.

What was measured:
[1] = target: T1, human intestinal bile acid transporter (hIBAT) (Homo sapiens, UniProt Q12908); test: Competitive inhibition of 3H-taurocholate uptake in COS-hIBAT cells; type: cell-based; details: for Ki: COS-7 cells transfected with hIBAT, HBSS with sodium, value (±SEM); for inhibition of 3H-taurocholate uptake / interaction with hIBAT (in words): COS-hIBAT cells, 0.25 μM 3H-taurocholate, valacyclovir 10 to 600 μM, atenolol 10 to 200 μM, glycine and taurine 50 to 200 μM, bile acids 1 to 100 μM
T1 construct: expressed in transfected cells; host or cells: COS-7 cells, transient transfection with pCMV5-hIBAT (LipofectAMINE 2000)
T1 sequence (Q12908 1-348): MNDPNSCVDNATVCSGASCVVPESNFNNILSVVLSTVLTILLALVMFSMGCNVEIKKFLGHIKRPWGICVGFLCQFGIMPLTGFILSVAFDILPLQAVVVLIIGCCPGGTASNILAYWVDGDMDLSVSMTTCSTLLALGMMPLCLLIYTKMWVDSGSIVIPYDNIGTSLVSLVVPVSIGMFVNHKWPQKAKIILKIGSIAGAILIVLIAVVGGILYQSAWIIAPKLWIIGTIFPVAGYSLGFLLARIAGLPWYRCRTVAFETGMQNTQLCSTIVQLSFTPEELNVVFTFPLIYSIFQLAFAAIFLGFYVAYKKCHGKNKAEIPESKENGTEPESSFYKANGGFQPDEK
Method: Cell dilutions are streaked on nutrient agar plates containing 50 μg/ml ampicillin, and incubated at 37° C. overnight. Isolated colonies are selected aseptically, and are used to inoculate a 200 ml nutrient broth culture containing 50 μg/ml ampicillin. […] After an isopropanol precipitation and ethanol wash, the DNA is reconstituted in 600 μl of sterile deionized water. […] Cells are transfected at 24 hours post seeding. For each well transfected, 0.8 μg hIBAT cDNA is combined with LipofectAMINE 2000 reagent and incubated at room temperature for 20 minutes to allow complexes to form. A volume of 100 μl of hIBAT-lipid complex is added to each well of cells.
Uptake studies are performed on COS-hIBAT cells at 24 hours post-transfection. […] Because bile acid transport is sodium dependent, this MHBSS approach allows for the simple modification of the uptake buffer to exclude all sources of sodium, and thus enables for a control uptake assay under sodium-free conditions.
Incubation conditions and analysis are performed as described for the Km and Vmax studies. The following equation (Formula 2) is used to estimate the Ki for a series of naturally occurring bile acids: [formula]
Inhibition studies are performed in triplicate.

[2] = cited from earlier work
[3] = target: T2, human intestinal peptide transporter (PepT1) (Homo sapiens, UniProt P46059); details: stable lines of CHO/PepT1; cited from earlier work
T2 sequence (P46059 1-708): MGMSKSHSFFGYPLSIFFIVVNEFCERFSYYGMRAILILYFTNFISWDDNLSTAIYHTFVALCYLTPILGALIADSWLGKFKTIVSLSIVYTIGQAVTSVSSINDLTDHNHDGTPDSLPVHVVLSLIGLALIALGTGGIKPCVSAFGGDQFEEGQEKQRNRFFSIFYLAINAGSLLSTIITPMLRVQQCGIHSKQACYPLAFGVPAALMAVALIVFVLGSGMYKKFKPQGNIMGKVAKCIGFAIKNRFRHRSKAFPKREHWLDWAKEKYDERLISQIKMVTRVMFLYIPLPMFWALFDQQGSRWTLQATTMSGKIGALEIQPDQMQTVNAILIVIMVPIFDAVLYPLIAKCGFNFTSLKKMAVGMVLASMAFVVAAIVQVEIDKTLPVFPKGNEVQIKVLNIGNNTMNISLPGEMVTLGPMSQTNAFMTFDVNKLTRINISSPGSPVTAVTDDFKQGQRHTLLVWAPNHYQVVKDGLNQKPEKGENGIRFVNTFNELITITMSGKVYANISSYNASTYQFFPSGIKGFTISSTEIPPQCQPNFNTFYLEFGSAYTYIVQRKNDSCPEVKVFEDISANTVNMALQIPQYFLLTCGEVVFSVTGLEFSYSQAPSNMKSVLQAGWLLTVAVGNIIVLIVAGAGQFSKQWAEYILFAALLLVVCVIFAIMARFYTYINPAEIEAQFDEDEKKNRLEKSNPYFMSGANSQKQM

Caco-2 monolayers = details: across Caco-2 monolayers; example value for reference marker; cited from earlier work
[4] = read-out: Ki, inhibition of 3H-taurocholate uptake

## C[C@H](CCC(=O)O)[C@H]1CC[C@H]2[C@@H]3[C@H](O)C[C@@H]4C[C@H](O)CC[C@]4(C)[C@H]3CC[C@]12C [chenodeoxycholate]
[1]
  Ki: 5.4 µM

## CC(C)C(NC(=O)CCC(C)C1CCC2C3CCC4CC(O)CCC4(C)C3CC(O)C12C)C(=O)OCCOCn1cnc2c(=O)[nH]c(N)nc21 (centres unmarked) [acyclovir valyldeoxycholate]
[1]; [4]
  Ki: 401 µM

## CC(C)[C@H](N)C(=O)OCCOCn1cnc2c(=O)[nH]c(N)nc21 [valacyclovir]
[2]
  bioavailability after oral administration: 54%
[1]
  inhibition of 3H-taurocholate uptake / interaction with hIBAT (in words): no inhibition
[1]; listed as Valacyclovir
  inhibition of 3H-taurocholate uptake / interaction with hIBAT (in words): do not inhibit
[3]
  Ki: 1100 µM

## CC(C)[C@H](NC(=O)CC[C@@H](C)[C@H]1CC[C@H]2[C@@H]3[C@H](O)C[C@@H]4C[C@H](O)CC[C@]4(C)[C@H]3CC[C@]12C)C(=O)OCCOCn1cnc2c(=O)[nH]c(N)nc21 [acyclovir valylchenodeoxycholate]
[1]; [4]
  Ki: 35.6 µM

## C[C@H](CCC(=O)O)[C@H]1CC[C@H]2[C@@H]3CC[C@@H]4C[C@H](O)CC[C@]4(C)[C@H]3CC[C@]12C [lithocholate]
[1]
  inhibition of 3H-taurocholate uptake / interaction with hIBAT (in words): never reaches 50% maximal velocity

## NCCS(=O)(=O)O [taurine]
[1]
  inhibition of 3H-taurocholate uptake / interaction with hIBAT (in words): not reduced

## COCCc1ccc(OCC(O)CNC(C)C)cc1 (centres unmarked) [metoprolol tartrate]
Caco-2 monolayers
  permeability: 40 ×10⁻⁶ cm/s

## NCC(=O)O [glycine]
[1]
  inhibition of 3H-taurocholate uptake / interaction with hIBAT (in words): not reduced
